Measured values published in patent US20230286919A1, “ISOQUINOLINE DERIVATIVES FOR USE IN THERAPY” (Vestlandets Innovasjonsselskap AS, priority 2020, published 2023).

What was measured:
LNCaP tumours = assay: Antitumor activity in vivo, LNCaP xenograft; settings: IP daily for three weeks
Method: Four-week-old male BALB/c-nu nude mice (15-20 g) were obtained from the Shanghai BiKai Laboratory Animal Co., Ltd. (Shanghai, China). The animals were maintained under specific pathogen-free conditions with food and water supplied ad libitum in the Laboratory Animal Center of the Second Military Medical University. All animal experiments were carried out in accordance with the Guide for the Care and Use of Laboratory Animals of the National Institutes of Health and were approved by the Committee on the Ethics of Animal Experiments of the Second Military Medical University, China. LNCaP cells were harvested and re-suspended in PBS. A total of 5×10^6 cells were subcutaneously injected into the right flank. Tumour volume was calculated using the following formula: V=(L×[…])/2, where L is the length and W is the width of the tumour nodules measured with vernier callipers. Once the volume of the tumours reached 75-100 mm^3, the mice were randomly divided into three groups (n=6). […] Body weights and tumour volumes were measured before each drug injection. […]
The mice were treated daily for three weeks with IP injections of either vehicle (olive oil) or compound 323-2 (20 mg/kg or 40 mg/kg in the vehicle). Body weights and tumour volumes were measured before each drug injection. […]

[1] = system: DNA-binding domain of STAT1, STAT3, STAT5A, STAT5B; assay: STAT family DNA binding assay on nuclear extracts of DU145 cells; format: cell-based, human; settings: 5-20 μM, 24 hrs
Method: The nuclear extraction was performed according to the STAT Family Transcription Factor Assay Kit (Abcam, ab207228). First, cells were washed with ice-cold PBS and Phosphatase Inhibitors Cocktail (125 mM NaF, […] p-glycerophosphatase, 250 mM PNPP, 25 mM NaVO3) in ice-cold PBVS was added and cells scraped off the dish. Then cells were collected at 300×g for 5 minutes at 4° C. The pellet was resuspended in hypotonic buffer (20 mM Hepes pH7.5, 5 mM NaF, 10 μM Na2MoO4, 0.1 mM EDTA) and 10% NP-40 was added to a final concentration 0.5% and mixed well. The mixture was centrifugated at 4° C. for 30 seconds in a microcentrifuge and supernatant was discarded. […] Stop solution was added when the wells turned medium to dark blue followed by measurement of absorbance at OD 450 nm. […]

[2] = system: phosphorylated STAT3 (Tyr705); assay: Western blot, IL-6-induced phosphorylation of STAT3 (Tyr705) in LNCaP cells; format: cell-based, human; settings: 20 μM, 24 hrs, 10 ng/ml IL-6 last 15 min
Method: To obtain the results shown in FIG. 9, LNCaP cells were treated with DMSO, 20 μM of compound 323-1 or 323-2 or 5 μM cryptotanshinone for 24 hrs before treatment with or without 10 ng/ml IL-6 for the last 15 min.

[3] = system: DU145, PC3, EPT3M1-STAT3, and 22Rv1 cells; assay: In vitro clonogenic assay; format: cell-based, human; settings: DU145, PC3, EPT3M1-STAT3, 22Rv1; 2 weeks
Method: On the second day after seeding single cells, 323-1 and 323-2 were added at various concentrations, and cells were allowed to grow for 2 weeks to form colonies, then stained with 0.4% crystal violet (w/v).

## C[C@@H]1CCC(c2cc3c4c(cncc4c2)[C@@H](C)C3)=C1C=O [323-2, (15S,2R)-Delavatine A]
LNCaP tumours; 20 mg/kg or 40 mg/kg, especially high dose
  CRPC tumour growth: significantly inhibited CRPC tumour growth
LNCaP tumours; 20 or 40 mg/kg
  Body weight change: No significant body weight change
[1]
  Effect on DNA binding of STAT1, STAT3, STAT5A, STAT5B: neither 323-1 nor 323-2 affected
[2]
  IL-6-induced phosphorylation of STAT3 on Tyr705: inhibited
[3]
  Colony formation: Concentration-dependent inhibition of colony formation
